Laboratory results: a compilation of properties of binary mixtures (doi:10.1016/j.jct.2020.106093)

Assay: xn = mol fraction of the nth substance listed
Details: 100.9 kPa

CC(=O)[O-].CC[NH2+]CC + O
Details | electrical conductivity [S/m] | speed of sound [m/s] | viscosity [mPa·s]
313.15 K, x1 = 0.351 | – | – | 19.49
313.15 K, x1 = 0.708 | – | 1494 | –
313.15 K, x1 = 0.714 | – | – | 33.5
313.15 K, x1 = 0.835 | – | 1461 | –
313.15 K, x1 = 0.84 | – | – | 34
315.65 K, x1 = 0.015 | – | – | 0.904
315.65 K, x1 = 0.055 | – | – | 1.89
315.65 K, x1 = 0.24 | – | – | 11.59
315.65 K, x1 = 0.351 | – | – | 17.57
315.65 K, x1 = 0.549 | – | – | 26.3
315.65 K, x1 = 0.84 | – | – | 30.6
318.15 K, x1 = 0.015 | 4.74 | 1608 | 0.862
318.15 K, x1 = 0.054 | 8.13 | – | –
318.15 K, x1 = 0.055 | – | 1732 | 1.774
318.15 K, x1 = 0.119 | – | 1782 | 3.94
318.15 K, x1 = 0.12 | 5.91 | – | –
318.15 K, x1 = 0.168 | 4.05 | 1758 | 6.11
318.15 K, x1 = 0.24 | 2.51 | 1699 | 10.54
318.15 K, x1 = 0.35 | – | 1636 | –
318.15 K, x1 = 0.351 | – | – | 15.87
318.15 K, x1 = 0.549 | – | 1526 | 23.7
318.15 K, x1 = 0.55 | 0.767 | – | –
318.15 K, x1 = 0.708 | – | 1479 | –
318.15 K, x1 = 0.714 | 0.609 | – | 27.2
318.15 K, x1 = 0.835 | – | 1446 | –
318.15 K, x1 = 0.838 | 0.498 | – | –
318.15 K, x1 = 0.84 | – | – | 27.6
318.15 K, x1 = 0.945 | 0.476 | – | –
320.65 K, x1 = 0.015 | – | – | 0.826
320.65 K, x1 = 0.055 | – | – | 1.67
320.65 K, x1 = 0.119 | – | – | 3.65
320.65 K, x1 = 0.168 | – | – | 5.63
320.65 K, x1 = 0.24 | – | – | 9.62
320.65 K, x1 = 0.351 | – | – | 14.41
320.65 K, x1 = 0.549 | – | – | 21.5
320.65 K, x1 = 0.714 | – | – | 24.6
320.65 K, x1 = 0.84 | – | – | 25
323.15 K, x1 = 0.015 | – | 1610 | 0.795
323.15 K, x1 = 0.055 | – | 1725 | 1.576
323.15 K, x1 = 0.119 | – | 1768 | 3.4
323.15 K, x1 = 0.168 | – | 1744 | 5.21
323.15 K, x1 = 0.24 | – | 1685 | 8.81
323.15 K, x1 = 0.35 | – | 1622 | –
323.15 K, x1 = 0.351 | – | – | 13.12
323.15 K, x1 = 0.549 | – | 1512 | 19.55
323.15 K, x1 = 0.708 | – | 1464 | –
323.15 K, x1 = 0.714 | – | – | 22.3
323.15 K, x1 = 0.835 | – | 1430 | –
323.15 K, x1 = 0.84 | – | – | 22.7
325.65 K, x1 = 0.015 | – | – | 0.757
325.65 K, x1 = 0.055 | – | – | 1.489
325.65 K, x1 = 0.119 | – | – | 3.17
325.65 K, x1 = 0.168 | – | – | 4.82
325.65 K, x1 = 0.24 | – | – | 8.09
325.65 K, x1 = 0.351 | – | – | 11.97
325.65 K, x1 = 0.549 | – | – | 17.76
325.65 K, x1 = 0.714 | – | – | 20.3
325.65 K, x1 = 0.84 | – | – | 20.6
328.15 K, x1 = 0.055 | – | – | 1.411
328.15 K, x1 = 0.119 | – | – | 2.97
328.15 K, x1 = 0.168 | – | – | 4.48
328.15 K, x1 = 0.24 | – | – | 7.45
328.15 K, x1 = 0.351 | – | – | 10.96
328.15 K, x1 = 0.714 | – | – | 18.53
328.15 K, x1 = 0.84 | – | – | 18.78
330.65 K, x1 = 0.24 | – | – | 6.88
330.65 K, x1 = 0.351 | – | – | 10.06
330.65 K, x1 = 0.549 | – | – | 14.78
330.65 K, x1 = 0.714 | – | – | 16.94
330.65 K, x1 = 0.84 | – | – | 17.14
333.15 K, x1 = 0.015 | 7.37 | – | 0.666
333.15 K, x1 = 0.054 | 13.1 | – | –
333.15 K, x1 = 0.055 | – | – | 1.273
333.15 K, x1 = 0.12 | 8.77 | – | –
333.15 K, x1 = 0.168 | 5.75 | – | 3.89
333.15 K, x1 = 0.24 | 3.65 | – | 6.37
333.15 K, x1 = 0.353 | 2 | – | –
333.15 K, x1 = 0.549 | – | – | 13.57
333.15 K, x1 = 0.714 | 0.802 | – | 15.52
333.15 K, x1 = 0.838 | 0.666 | – | –
333.15 K, x1 = 0.945 | 0.65 | – | –
335.65 K, x1 = 0.015 | – | – | 0.641
335.65 K, x1 = 0.055 | – | – | 1.213
335.65 K, x1 = 0.119 | – | – | 2.45
335.65 K, x1 = 0.24 | – | – | 5.91
335.65 K, x1 = 0.351 | – | – | 8.55
335.65 K, x1 = 0.549 | – | – | 12.48
335.65 K, x1 = 0.714 | – | – | 14.25
335.65 K, x1 = 0.84 | – | – | 14.39
338.15 K, x1 = 0.015 | – | – | 0.617
338.15 K, x1 = 0.055 | – | – | 1.159
338.15 K, x1 = 0.119 | – | – | 2.31
338.15 K, x1 = 0.168 | – | – | 3.4
338.15 K, x1 = 0.24 | – | – | 5.49
338.15 K, x1 = 0.351 | – | – | 7.91
338.15 K, x1 = 0.549 | – | – | 11.5
338.15 K, x1 = 0.714 | – | – | 13.11
338.15 K, x1 = 0.84 | – | – | 13.23
340.65 K, x1 = 0.015 | – | – | 0.595
340.65 K, x1 = 0.055 | – | – | 1.108
340.65 K, x1 = 0.119 | – | – | 2.18
340.65 K, x1 = 0.24 | – | – | 5.12
340.65 K, x1 = 0.351 | – | – | 7.33
340.65 K, x1 = 0.549 | – | – | 10.62
340.65 K, x1 = 0.714 | – | – | 12.08
340.65 K, x1 = 0.84 | – | – | 12.19
343.15 K, x1 = 0.015 | – | – | 0.574
343.15 K, x1 = 0.119 | – | – | 2.06
343.15 K, x1 = 0.168 | – | – | 3
343.15 K, x1 = 0.24 | – | – | 4.78
343.15 K, x1 = 0.351 | – | – | 6.81
343.15 K, x1 = 0.549 | – | – | 9.84
343.15 K, x1 = 0.714 | – | – | 11.16
343.15 K, x1 = 0.84 | – | – | 11.24
348.15 K, x1 = 0.007 | 3.01 | – | –
348.15 K, x1 = 0.015 | 10.1 | – | –
348.15 K, x1 = 0.054 | 16.6 | – | –
348.15 K, x1 = 0.12 | 10.6 | – | –
348.15 K, x1 = 0.168 | 7.47 | – | –
348.15 K, x1 = 0.24 | 4.92 | – | –
348.15 K, x1 = 0.945 | 1.09 | – | –
363.15 K, x1 = 0.007 | 3.4 | – | –
363.15 K, x1 = 0.015 | 12.9 | – | –
363.15 K, x1 = 0.054 | 17.4 | – | –
363.15 K, x1 = 0.12 | 11.6 | – | –
363.15 K, x1 = 0.24 | 5.47 | – | –
363.15 K, x1 = 0.353 | 3.65 | – | –
363.15 K, x1 = 0.55 | 2.24 | – | –
363.15 K, x1 = 0.714 | 1.67 | – | –
363.15 K, x1 = 0.838 | 1.32 | – | –
